Data set [1] in a line: Blood levels of the clavulanate after oral dosing in mice, determined by β-lactamase inhibition assay. Conditions: mouse. In kind it is in vivo. The text has this: These compounds were adminstered in 10% dimethylformamide/90% olive oil. […]
(§1) An antibacterial assay was used to determine levels of benzyl penicillin in blood samples. A P-lactamase inhibition assay was employed to determine levels of the clavulanate in the samples.

Data set [2] can be described thus: Blood levels of benzyl penicillin after oral dosing in mice, determined by antibacterial assay. The conditions noted are these: mouse, in vivo, 60 mg/kg. As to the method:
[…] These compounds were adminstered in 10% dimethylformamide/90% olive oil. The dose was equivalent to approximately 62 mg/kg of benzyl penicillin and 38 mg/kg of the clavulanate.
as §1

This is an account of results in patent EP0084730A1, “Esters of penicillin derivatives with beta-lactamase inhibitors, their preparation and their use” (BEECHAM GROUP PLC, priority 1982, dated 1983).

Structures are written as SMILES.

With `COC/C=C1\O[C@@H]2CC(=O)N2[C@H]1C(=O)O` [Clavulanic acid methyl ether], in data set [1] (in vivo, 20 mg/kg), the concentration at 0.25 h turned out to be 7500 ng/mL, the concentration at 0.5 h turned out to be 3850 ng/mL, the concentration at 1 h is 1500 ng/mL and the concentration at 2 h came out at 200 ng/mL. For the same molecule, the “Blood levels of clavulanic acid methyl ether” value in data set [1] (in vivo, 20 mg/kg, 1.5 h) was 450 ng/mL.
For the molecule `CC1(C)S[C@@H]2[C@H](NC(=O)Cc3ccccc3)C(=O)N2[C@H]1C(=O)O` [benzyl penicillin], the concentration at 0.25 h in data set [2] stood at 1390 ng/mL. This molecule showed a concentration at 0.5 h in data set [2] of 1050 ng/mL. In addition, the concentration at 0.75 h in data set [2] was found to be 1250 ng/mL. The concentration at 1 h in data set [2] is 620 ng/mL. This molecule gave a concentration at 1.5 h in data set [2] of 550 ng/mL. The concentration at 2 h in data set [2] amounted to 320 ng/mL. The “Blood levels of benzyl penicillin” value in data set [2] (0.25 h) is 1390 ng/mL; in data set [2] (0.5 h), 1050 ng/mL; in data set [2] (0.75 h), 1250 ng/mL; in data set [2] (1 h), 620 ng/mL; in data set [2] (1.5 h), 550 ng/mL; in data set [2] (2 h) it was 320 ng/mL.
Regarding `O=C(O)[C@H]1/C(=C/CO)O[C@@H]2CC(=O)N21` [clavulanic acid], the concentration at 0.25 h in data set [1] (blood, mice, clavulanic acid alone at 20 mg/kg, 15' after administration, mean results from several experiments, read-out: Blood levels of clavulanic acid) was 5900 ng/mL. Moreover, in data set [1] (blood, mice, clavulanic acid alone at 20 mg/kg, 30' after administration, mean results from several experiments, read-out: Blood levels of clavulanic acid), the concentration at 0.5 h amounted to 2300 ng/mL. Besides, the concentration at 0.75 h in data set [1] (blood, mice, clavulanic acid alone at 20 mg/kg, 45' after administration, mean results from several experiments) was determined as 1040 ng/mL. Besides, the concentration at 1 h in data set [1] (blood, mice, clavulanic acid alone at 20 mg/kg, 60' after administration, mean results from several experiments, read-out: Blood levels of clavulanic acid) stood at 530 ng/mL. Also, the concentration at 1.5 h in data set [1] (blood, mice, clavulanic acid alone at 20 mg/kg, 90' after administration, mean results from several experiments) was 340 ng/mL. Further, the concentration at 2 h in data set [1] (blood, mice, clavulanic acid alone at 20 mg/kg, 120' after administration, mean results from several experiments, read-out: Blood levels of clavulanic acid) is no more than 300 ng/mL.
